Experiments:
farnesyltransferase = farnesyltransferase (Homo sapiens, UniProt P49354+P49356); settings: cited from earlier work
human PBMC = experiment: LPS-induced cytokine production in human PBMC; format: cell-based; settings: 2 or 5 μM, LPS 10 ng/ml, 10% FBS
Description: (§1) Human IL-6, IL18, IL1β, MCP-1, MMP-9, and mouse IL-6, IL18, TNFα, MCP-1 and IL-1β were measured with ELISA kits (R&D Systems) according to the manufacturer's instructions.
Heparinized human blood (25 ml) from a healthy donor was overlaid into a 50 ml conical tubes containing 20 ml Ficoll-Paque, and centrifuged for 20 min at 2000 rpm at room temperature and then allowed to stop without using the brake on the centrifuge. The upper layer was aspirated, leaving the mononuclear cell layer undisturbed at the interface. Cells were carefully transferred the to a new […] conical tube. The conical tube was filled with PBS, mixed and centrifuged at 1500 rpm for 15 minutes at room temperature. The supernatant was carefully and completely removed. The cell pellet was resupended in 50 ml of PBS and centrifuged at 1500 rpm for 5 minutes. This wash step was repeated once more. The cells were counted and resuspended cells at 1.7×10^6/ml in low-endotoxin RPMI1640/10% FBS.
Human PBMC (180 μl at 1.7×10^6/ml) were pipetted into each well of a 96-well plate. […] Cells were incubated at 37° C., under 5% CO2 for 1 hour, then 10 μl LPS (diluted in medium) were added per well to reach a final concentration of 10 ng/ml. Cells were cultured at 37° C., under 5% CO2. Supernatants were collected at 16 hours, 24 hours and 40 hours of LPS treatment, and IL-6 secretion was quantified.

BALB/c mice = experiment: LPS-induced cytokine production in vivo (murine model of LPS-induced inflammation); settings: Mus musculus; 50 mg/kg oral before LPS; 2 hours, first experiment; read-out: inhibition of MIP-1α production
Description: The experiments were performed on female BALB/c mice (6-7 week old; Charles River Laboratories, Inc. MA). […] The control mice received the vehicle (20% cyclodextran) only. 20 μg LPS (Sigma), diluted in PBS, was injected into each mouse intraperitoneally. Blood samples were collected either by eye bleeding or cardiac puncture at 1 and 2 hours after LPS injection in one experiment, and at 2 and 3 hours after LPS injection in a second experiment. Plasma samples were collected by centrifugation, and stored at ≦−20° C. before being tested for cytokines using individual ELISA kits or Luminex analysis (see below).
as §1
Samples were tested for cytokines using the Bio-plex cytokine assay kit (Bio-Rad Laboratories, Inc.) according to the manufacturer's instructions. Briefly, 50 μL anti-cytokine antibody conjugated beads were added to wells of a filter plate pre-equilibrated with assay buffer. The beads were washed, then 50 μL of undiluted cell culture supernatant or 4-fold diluted plasma samples were added and incubated for 2 hours. Biotinylated anti-cytokine antibody (25 μL) was added to each well and the plate was incubated with shaking for 1.5 hours. Streptavidin-PE (50 μL) was added to each well and the plate was incubated with shaking for 45 min. between incubations, wells were washed 3 times with 100 μL wash buffer and unbound analytes were filtered using a vacuum manifold. Following the last wash step, 125 μL of assay buffer was added to each well and the plate was placed on a shaker for 10 min. The plate was read on a Luminex^100 instrument (Luminex Corporation, Austin, Tex.) according to the manufacturer's instructions. The concentration of cytokine was determined from a standard curve assayed at the same time.

NF-κB = settings: cited from earlier work

Cn1cncc1C(N)(c1ccc(Cl)cc1)c1ccc2c(c1)c(-c1cccc(Cl)c1)cc(=O)n2C (single isomer, unassigned) [less active enantiomer]
fold less active than tipifarnib (R115777) for inhibition of farnesyltransferase (farnesyltransferase): about 100 fold | LPS-induced IL-6 production (human PBMC): No difference in production

CCC(C)(C)C(=O)O[C@H]1C[C@@H](C)C=C2C=C[C@H](C)[C@H](CC[C@@H]3C[C@@H](O)CC(=O)O3)[C@H]21 [simvastatin]
inhibition at 50 mg/kg (BALB/c mice): ~50%

NC(=O)N1CCC(CC(=O)N2CCC([C@H]3c4ncc(Br)cc4CCc4cc(Cl)cc(Br)c43)CC2)CC1 [SCH 66336, (+)-(R)-4-[2-[4-(3,10-dibromo-8-chloro-5,6-dihydro-11H-benzo[5,6]cyclohepta[1,2-b]pyridin-11-yl)piperidin-1-yl]-2-oxoethyl]piperidine-1-carboxamide]
TNF-α induced NF-κB activity (NF-κB): inhibited
